This note sets out measurements from ChEMBL document CHEMBL1142617, “Mycalamides C and D, cytotoxic compounds from the marine sponge Stylinos n. species” (J Nat Prod, 2000).

In brackets after ≈: the same amount, converted by molar mass.

As usually defined, the IC50 is the concentration that inhibits the measured activity by half.

This assay concerns P388. Kind of assay: Cytotoxicity against mouse P388 cells. It is filed as functional, cell-based.
`C=C1C[C@](OC)([C@H](O)C(=O)N[C@@H]2OCO[C@H]3[C@@H]2O[C@H](CO)C(C)(C)[C@@H]3OC)O[C@H](C)[C@@H]1C` [THEOPEDERIN E] showed an IC50 of 0.0009 µg/mL (≈ 0.00196 µM).
Compound `C=C1C[C@](OC)([C@H](O)C(=O)N[C@H]2OCO[C@H]3[C@@H]2O[C@H](C[C@H](O)CO)C(C)(C)[C@@H]3O)O[C@H](C)[C@@H]1C` [MYCALAMIDE D] had an IC50 of 0.035 µg/mL (≈ 0.0715 µM).
To `C=C1C[C@](OC)([C@H](O)C(=O)NC[C@H]2O[C@H](CO)C(C)(C)[C@H](O)[C@H]2O)O[C@H](C)[C@@H]1C` [MYCALAMIDE C] belongs 0.095 µg/mL (≈ 0.228 µM).
The compound `C=C1C[C@](OC)([C@H](O)C(=O)N[C@H]2OCO[C@H]3[C@@H]2O[C@H](C[C@H](O)CO)C(C)(C)[C@@H]3OC)O[C@H](C)[C@@H]1C` [MYCALAMIDE A] had an IC50 of 0.0011 µg/mL (≈ 0.00218 µM).
